Results from publication PMC9691367, “The PROTAC selectively degrading Bcl-xL represents a novel Hedgehog pathway inhibitor with capacity of combating resistance to Smoothened inhibitors while sparing bone growth” (Theranostics, 2022).

Experiments:
[1] = tested on: light II and NIH-3T3 cells; experiment: In vitro cytotoxicity assay (MTT); format: cell-based; details: 10 μM, 72 h
Method: Cells were seeded in 96-well plates at an appropriate density and treated with compounds for 72 h. The effects on proliferation were determined using MTT according to the manufacturer's protocol.
Figure S2. (A) Viability of NIH-3T3 cells and light II cells was determined by MTT cytotoxicity assays after incubation with various concentrations of SIAIS361034 as indicated for 72 h. Data represent mean ± SD (n = 3). (B) NF-κB luciferase analysis of the effect of SIAIS361034 on NF-κB signaling pathway in 293T cells.The 293T cells were transfected with NF-κB luciferase reporter and Renilla-TK plasmids and […]
(§1) μM) for 6 h. Data represent mean ± SD (n = 3). (C) TCF/LEF luciferase analysis of the effect of SIAIS361034 on Wnt signaling pathway in LS174T cells. The LS174T cellswere transfected with TCF/LEF luciferase reporter and Renilla-TK plasmids and […]
(§2) Data represent mean ± SD (n = 3).
(§3) (1 picture or pasted object on this page, not shown here)

[2] = tested on: SmoA1 (Smo W539L) medulloblastoma tumor; experiment: SmoA1 medulloblastoma allograft in nude mice; format: in vivo, mouse
From the text: For in vivo SmoA1 MB allograft studies, SmoA1 spontaneous MB tumors were obtained from ND2:SmoA1 transgenic mice as previously described. Male nude mice (4 to 5 weeks of age) were purchased from Shanghai Lingchang Biotechnology Co. (Shanghai, China). Spontaneous tumors were harvested and subcutaneously allografted into nude mice. When the tumor volumes reached approximately 2000 mm^3, they were harvested and further subcutaneously allografted into nude mice. When the tumor volumes reached about 150 to 200 mm^3, the tumor-bearing mice were randomly assigned into vehicle and treatment groups. Mice were weighed every 3 days. Tumor size was measured once every 3 days using microcaliper. Tumor volume (V) was determined using the following formula: V = (L×W^2) ×0.5, where L is length, and W is width in mm. Tumor tissues were harvested 6 h after the last dosage to examining Gli1 mRNA expression and protein levels. SIAIS361034 for i.p. administration was formulated in 0.5% sodium carboxymethyl cellulose (CMC-Na). All in vivo studies above were approved by and conformed to the policies and regulations of the Animal Care and Use Committee of Fudan University, China.

Bcl-xL [3] = target: T1, Bcl-xL (Mus musculus, UniProt Q64373); experiment: Western blot of Bcl-xL degradation in NIH-3T3 cells; format: cell-based
T1 construct: endogenous in cells; host or cells: NIH-3T3
Method: (§4) Cells were lysed in cell lysis buffer (50 mM Tris pH 8.0, 150 mM NaCl, 10% glycerol, 1 mM EDTA, 50 mM NaF, and 0.1% NP-40) supplemented with protease and phosphatase inhibitors. Total protein extracts of tissues were generated in radioimmunoprecipitation (RIPA) assay lysis buffer containing complete protease and phosphatase inhibitor cocktail. Protein content was quantified using the Pierce BCA Protein Assay Kit (#23225, Thermo Fisher Scientific). The proteins were separated by SDS-PAGE, electrophoretically transferred to polyvinylidene difluoride (PVDF) blotting membranes (#LC2002, Thermo Fisher Scientific), and subjected to routine immunoblot analysis with primary antibodies as follows: anti-Bcl-2 (#15071), anti-Mcl-1 (#94296), anti-VHL (#68547), anti-CRBN (#71810), and anti-Sufu (#2522) were obtained from Cell Signaling Technology (Danvers, Massachusetts, USA); anti-Bcl-xL (#ab32370), anti-Gli1 (#ab134906), and anti-Smoothened (#ab236465) were obtained from Abcam (Cambridge, CB2 0AX, UK); anti-GAPDH (#60004-1-Ig) and anti-β-tubulin (#10094-1-AP) were purchased from Proteintech Group, Inc. (Rosemont, IL 60018, USA). The results were quantified by densitometry using ImageJ software (NIH).

Gli1 [4] = experiment: Western blot of Gli1 in light II cells; format: cell-based; details: 1 µM
Method: as §4

[5] = tested on: bone growth of young mice; experiment: Bone growth of young mice (body weight, Micro-CT, H&E, IHC); format: in vivo, mouse; details: 6-week-old mice treated P12 to P16
Gli1 [6] = experiment: Immunofluorescence staining of Gli1 in 293T cells transfected with Gli1; format: cell-based; details: 293T cells transfected with Gli1, 1 µM, 24 h
Method: Cells were fixed with 4% paraformaldehyde (PFA) for 15 min, permeabilized with 0.3% Triton X-100 in PBS for 10 min, and blocked with 1% BSA in PBS for 2 h. After that, the cells were further incubated with rabbit anti-Gli1 antibody (#101156-T10, SinoBiological) at 4 °C overnight. Then cells were stained with the Alexa Fluor®594-conjugated Goat Anti-rabbit IgG secondary antibody (red) for 1.5 h. Nuclei were counterstained with DAPI (blue). The immunofluorescent images of cells were captured under a fluorescence microscope (Leica).

Bcl-xL [7] = target: Bcl-xL (Homo sapiens, UniProt Q07817); experiment: Co-immunoprecipitation of Bcl-xL ubiquitination in 293T cells; format: cell-based; details: 293T cells with GST-Bcl-xL and HA-Ub, 1 µM, 4 h
Method: Cells were lysed in immunoprecipitation lysis buffer (#87787, Thermo Fisher Scientific) supplemented with protease and phosphatase inhibitor cocktail. Cell lysates were incubated with the indicated antibodies at 4 °C overnight, followed by incubation with Protein A/G Plus-Agarose beads (Santa Cruz Biotechnology) at 4 °C for 4 h. Immunoprecipitates were collected by centrifugation and washed three times with washing buffer. The complex was separated from the beads and then boiled for 10 min. The immunoprecipitates and inputs were analyzed by SDS-PAGE and immunoblot using the antibodies as indicated. […]
hydrochloride; DMAP = 4-dimethylaminopyridine; TFA = trifluoroacetic acid; DMF = N,N-dimethylformamide. (D) A representative western blot analysis of SALL4 in NIH-3T3 cells after being treated with SIAIS361034 as indicated for 24 h. (E) A representative western blot analysis of hemagglutinin (HA), Bcl-xL, and GAPDH following GST-Bcl-xL immunoprecipitation of protein extracts from 293T cells. Cells were cotransfected as indicated with GST-Bcl-xL and HA-tagged ubiquitin (HA-Ub) and then were treated with or without SIAIS361034 (1 µM) and MG132 (10 µM) as […]

Bcl-2 and Mcl-1 = experiment: Western blot of Bcl-2 and Mcl-1 in NIH-3T3 cells; format: cell-based; details: 1 µM
Method: as §4

Wnt signaling pathway = experiment: TCF/LEF luciferase reporter assay in LS174T cells; format: cell-based; details: PGE2 1 μM, 24 h, SIAIS361034 10 μM, H-89 20 μM
Method: Cells seeded in 96-well plates were treated with various treatments as indicated. The luciferase activity in the cell lysates was measured using Dual-Luciferase Reporter Assay System (Promega, Madison, WI, USA) according to the manufacturer's instructions in a luminometer (Molecular Devices, Sunnyvale, CA). The firefly luciferase values were normalized to Renilla values. […]
as §1, §2, §3

T1 sequence (Q64373 whole entry): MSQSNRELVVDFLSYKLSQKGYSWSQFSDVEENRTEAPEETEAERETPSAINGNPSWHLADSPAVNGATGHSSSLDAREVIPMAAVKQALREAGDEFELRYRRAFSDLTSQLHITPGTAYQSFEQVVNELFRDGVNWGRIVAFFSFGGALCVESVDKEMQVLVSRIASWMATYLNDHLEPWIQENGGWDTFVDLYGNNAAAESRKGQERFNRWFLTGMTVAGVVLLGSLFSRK
Chain of Bcl-xL (Homo sapiens, UniProt Q07817) (Q07817 whole entry, species assumed): as the sequence (Q64373 whole entry) above, with E40G, A43S, R45M, S168A, D193E counted along it

In the case of CC1(C)CCC(c2ccc(Cl)cc2)=C(CN2CCN(c3ccc(C(=O)NS(=O)(=O)c4ccc(NCCCN5CCN(CCCC#Cc6cccc7c6CN(C6CCC(=O)NC6=O)C7=O)CC5)c(S(=O)(=O)C(F)(F)F)c4)cc3)CC2)C1 (stereo not drawn) [SIAIS361034], the “cytotoxicity (MTT)” value [1] is reported as “no toxic effects”, the “tumor inhibition ratio / mean tumor growth inhibition (TGI) ratio” value ([2]; nude mice, SIAIS361034 50 mg/kg, day 15 (termination of the experiment)) is reported as 93.56% and the “growth of SmoA1 tumors” value ([2]; nude mice, SIAIS361034 50 mg/kg, GDC-0449 50 mg/kg p.o.) is reported as “remarkably suppressed”. For the same compound, the “expression of Gli1 mRNA in tumor tissues” value ([2]; tumors harvested 6 h after the last dosage, RT-qPCR) was “significantly inhibited”, the “Bcl-xL and Gli1 protein in harvested tumors” value ([2]; western blot at the end of the experiment) was “inducing Bcl-xL degradation and repressing Gli1 expression” and the “duration of Bcl-xL degradation” value (Bcl-xL [3]; 1 µM for 24 h followed by drug withdrawal) was “around 48 h”. For the same compound, the Bcl-xL degradation (Bcl-xL [3]; 1 µM, western blot) was “significantly degraded Bcl-xL”, the Dmax (Bcl-xL [3]; NIH3T3, 24 h, western blot, read-out: maximum degradation (Dmax) of Bcl-xL) was 88.1% and the “effect on Bcl-xL mRNA levels” value (Bcl-xL [3]; data not shown) was “almost no effect”. For the same compound, the Gli1 protein level (Gli1 [4]) was “decreased Gli1 protein level”, the “platelets and other indispensable blood cells at the end of the experiment” value [5] was “no side effects” and the “translocation of Gli1 from cytoplasm into nucleus” value (Gli1 [6]) was “suppressed translocation of Gli1 from cytoplasm into nucleus”. For the same compound, the Bcl-xL ubiquitination (Bcl-xL [7]) was “induce Bcl-xL ubiquitination”, the “levels of Bcl-2 and Mcl-1” value (Bcl-2 and Mcl-1) was “did not change the levels of Bcl-2 and Mcl-1” and the “TCF/LEF luciferase activity (Wnt signaling) activated by PGE2” value (Wnt signaling pathway) was “failed to repress”.
